The record followed here is patent US20240124428A1, “HETEROCYCLIC INHIBITORS OF PCSK9” (CARDIO THERAPEUTICS PTY LTD, priority 2020, published 2024).

A short description of series [1]: Dedicated pharmacokinetic study, single oral dose. It is filed as in vivo, C57BL/6 mice. Particulars: plasma; for Cmax / Tmax / AUC(0-t): female, C57BL/6, mouse, mice; for Cmax / Tmax: PO 50 mg/kg study; for AUC(0-t): route and dose not given (PO 50 mg/kg study); for bioavailability: mouse, PO dose of 50 mg/kg, female C57BL/6 mice. The protocol:
For dedicated pharmacokinetic analyses of compounds 29, 122 and 131, C57BL/6 mice (19-21 g, 10-12 weeks, female, purchased from Jihui Laboratory Animal Co. LTD) were given free access to food and water throughout the in-life phase of the study. Mice were orally dosed once with 50 mg/kg (10 mL/kg) of either compound 29, 122 and 131 with each compound formulated in 90% saline, 5% Solutol HS15 and 5% DMSO. At designated time points following dosing (t=0.083, 0.25, 0.5, 1, 2, 4, 8 and 24 h), the animals were restrained manually and ˜110 μL of blood/time point was collected into pre-cooled EDTA-K2 tubes via the facial vein. Blood samples were put on wet ice, then centrifuged at 2000 g for 5 min (4° C.) to obtain plasma within 15 min after sample collection. Plasma samples were subsequently stored at approximately −70° C. until analysis. Each sample was assayed for levels of 29, 122 and 131 by LC/MS/MS using a Triple Quadruple (6500+) system operating in a positive electrospray ionisation mode.
The mean plasma concentration-time profiles from dedicated pharmacokinetic analyses of compound 29, 122 and 131 are shown in FIG. 5A-C. Mice were orally dosed once with either 50 mg/kg of (A) compound 29, (B) compound 122 or (C) compound 131.

Series [2] is described as follows: HepG2 cytotoxicity (CellTiter-Glo). The note with it: human, HepG2 cells; 48 h of exposure. It counts as cell-based. As for the experimental part: HepG2 is a human hepatoma commonly used in drug metabolism and hepatotoxicity studies.
HepG2 cells were seeded at a density of 7000 or 8000 cells/well in a 96-well plate. Twenty to twenty four hours later, cells were treated with test compound for 48 hours in 3-fold serial dilutions with a top test concentration of 50 or 150 μM. After the incubation, CellTiter-Glo reagent was added directly to the wells. The plate was shaken for 2 or 5 mins on a plate shaker then incubated at room temperature for a further 10 mins. Subsequently, 100 μL of the above solution was transferred to a white flat bottom opaque 96 well plate (or opaque-walled clear bottom plates taped with a white bottom seal) and luminescence recorded on a plate reader.
In general terms: Cellular ATP, detected with luciferase, serves as a proxy for viable cell number.

A further series concerns APOE*3-Leiden.CETP mice. Put plainly: In vivo efficacy study: compound 29 monotherapy. The note with it: for reduction of total plasma cholesterol levels compared to the vehicle control: over a period of four weeks. The protocol:
Female APOE*3-Leiden.CETP mice (˜10-14 weeks old) were obtained from the SPF breeding stock at TNO-Metabolic Health Research (Leiden).
Mice were housed in macrolon cages (maximum of 6 mice per cage) in clean-conventional animal rooms (relative humidity 50-60%, temperature ˜21° C., light cycle 7 am to […]). Mice were fed a semi-synthetic western type diet with 15% saturated fat and 0.15% (w/w) cholesterol and were provided with heat-sterilized tap water and food ad libitum.
Forty female APOE*3-Leiden.CETP mice were allowed to acclimate to these conditions for a 3 week run-in period prior to the removal of 8 low-responder mice. […] In the final week of the run-in diet, all mice received vehicle solution (5% DMSO, 5% Solutol HS15, 90% saline) twice daily by oral gavage to accustom the animals to the procedure. After matching, mice received vehicle solution only (Group 1) or compound 29 in vehicle solution (Groups 2, 3 and 4) for the remainder of the study by twice daily administration using oral gavage in a volume of 5 mL/kg body weight. On days 0, 3, 7, 14, 21 and 28 of treatment, blood samples were taken after 4 h of fasting, from which EDTA plasma was collected and used for measurement of plasma total cholesterol. Lipoprotein profiles were determined on day 0, 14 and 28 in group pooled plasma samples using an equal volume of plasma per mouse. On day 28, directly after the last blood sampling point, mice were sacrificed via CO2 asphyxiation, fasted. At sacrifice, EDTA-plasma samples were obtained via heart puncture.
EDTA plasma blood samples were obtained after 4 h fasting. Animals were placed under a red light lamp for at least 10 minutes. The tail was fixed and the mice were allowed to move freely during blood collection and were not fixed to avoid additional stress. […]
Total plasma cholesterol and triglyceride levels were determined using a […] from Roche.
Analyses were performed in samples pooled per group. Cholesterol levels were measured using a “Cholesterol CHOD-PAP” kit from Roche.

As a reminder, the Cmax is the peak of the concentration-time curve. For orientation: Tmax means the time from dosing to the highest level. By AUC(0-t) is commonly meant exposure summed from dosing to a finite time, without extrapolation to infinity. Read a high AUC(0-t) as more exposure. What is called bioavailability is dose-corrected exposure relative to a reference, in per cent. Read a high bioavailability as good availability. A word on the IC50: it is the point on the concentration scale where inhibition reaches its midpoint. `Cc1ccc(-c2cc(CN3CCC(F)(F)[C@H](N)C3)cc(NC(=O)c3cc(-c4ccccc4)ccn3)c2)cn1` [Compound 122]: in series [1], the highest concentration (Cmax) came to 10800 ng/mL, the time to peak (Tmax) came out at 4 h, the area under the curve AUC(0-t) came to 173000 ng·h/mL and the bioavailability came out at 75%. This compound also gave a half-maximal inhibitory concentration (IC50) at 48 h in series [2] of 11.1 µM.
On to `Cc1cn(-c2cc(CN3CCC[C@H](N)C3)cc(NC(=O)c3cc(-c4ccccc4)ccn3)c2)cn1` [compound 29, (S)—N-(3-((3-aminopiperidin-1-yl)methyl)-5-(4-methyl-1H-imidazol-1-yl)phenyl)-4-phenylpicolinamide], for which, in series [1], the Cmax came out at 1480 ng/mL, the time to peak (Tmax) stood at 2 h, the AUC(0-t) was 8130 ng·h/mL and the bioavailability is 40%. This compound also returned an IC50 at 48 h in series [2] of 3.23 µM. In addition, in the series with APOE*3-Leiden.CETP mice (30 and 50 mg/kg bid oral, over four weeks), the “plasma PCSK9 levels” value is reported as “increase in plasma PCSK9 levels”. The “reduction of total plasma cholesterol levels compared to the vehicle control” value in the series on APOE*3-Leiden.CETP mice (oral dosing 30 mg/kg) is “more than 30%”. Further, the “reduction of total plasma cholesterol levels compared to the vehicle control” value in the series with APOE*3-Leiden.CETP mice (oral dosing 50 mg/kg) is reported as more than 50%.
Turning to `Cc1cnc(C(=O)Nc2cc(CN3CCC(F)(F)[C@H](N)C3)cc(-c3ccc(C(F)(F)F)nc3)c2)cc1-c1ccccc1` [compound 131], in series [1], the highest concentration (Cmax) was 6740 ng/mL, the time of peak concentration (Tmax) came out at 1 h, the AUC(0-t) turned out to be 98500 ng·h/mL and the bioavailability was 54%. The same compound returned an IC50 at 48 h in series [2] of 109 µM.
